Experimental data as given in PMC8909805, “Anticancer Activity of (S)-5-Chloro-3-((3,5-dimethylphenyl)sulfonyl)-N-(1-oxo-1-((pyridin-4-ylmethyl)amino)propan-2-yl)-1H-indole-2-carboxamide (RS4690), a New Dishevelled 1 Inhibitor” (Cancers, 2022).
“Also recorded” adds a separate entry of the source.

Assays:
WNT/β-catenin pathway = test: Inhibition of TCF/LEF (WRE-GFP reporter) activity in HEK293 cells expressing HA-FZD4; type: cell-based; settings: Homo sapiens, HEK293, 48 h, 48 h treatment, read-out: EC50 ± SD WNT Pathway Inhibition
Procedure: Briefly, Hek293 cells were seeded on black 96-well Optiplates (PerkinElmer, Waltham, MA, USA) at a density of 5 × 10^3/well. After seeding for 16–24 h, cells were co-transfected with the cDNA coding for HA-FZD4 (0.04 µg/well) as well as with the reporter construct WRE-GFP (0.04 µg/well) using Lipofectamine. Hek293 cells were plated and treated with different dilutions of compounds 2, (S)-2 or (R)-1 for 48 h before being fixed and analyzed under a fluorescence microscope. Inhibition of WRE activity was measured by counting the percentage of GFP positive cells. Experiments were performed in triplicate and the standard deviations are indicated.
The activity of the compounds was further assayed in HEK293 cells transiently expressing both HA-FZD4 and the WNT reporter construct WRE-GFP (25). The latter presents the coding sequence of GFP under the control of an optimized WNT responsive element (WRE-wt). When WRE-GFP is transiently transfected in cells, it promotes GFP transcription and translation. The amount of GFP produced by each cell (and thus overall cell-fluorescence) depends on the intracellular levels of WNT pathway activity (Figure 5).

DVL1 PDZ domain = biological target: T1, DVL1 PDZ domain (Homo sapiens, UniProt O14640); test: Equilibrium (FRET) competition binding between DVL1 PDZ domain and dansylated TMEM88 C-terminal peptide; settings: compound at 5 µM
T1 sequence (O14640 251-323 limits assumed): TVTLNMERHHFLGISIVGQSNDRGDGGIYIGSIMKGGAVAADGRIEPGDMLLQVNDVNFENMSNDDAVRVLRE
Procedure: Equilibrium binding experiments were performed on a Fluoromax-4 single photon counting spectrofluorometer (Jobin-Yvon, NJ, USA). The buffer used was sodium phosphate 50 mM, DMSO 20% v/v, pH 7.2, and the temperature was set at 25 °C. […] Experiments were performed in the absence and in the presence of 1 µM and 5 µM constant concentration of (S)-2 or (R)-1 enantiomers. Normalized fluorescence collected at 540 nm was fitted using a hyperbolic function.

SW480 cells = test: Cell growth inhibition, XTT assay, SW480; type: cell-based; settings: Homo sapiens, incubation time 72 h
Procedure: (§1) Cell viability was evaluated by XTT [35] (SW480 and SW620 cells) or MTT [36] (HEK293 and HCT116 cells) colorimetric assays. Briefly, cells (range 10–30 × 10^3 cells/well) were seeded in 96-well microculture plates and then exposed to increasing concentrations of different compounds (range 0–300 µM) for 48 or 72 h. At the end of the treatment, media were removed and incubated at 37 °C in the dark for 4 h in phosphate-buffered saline (PBS) containing 0.2 mg/mL of sodium 3′-[1-[(phenylamino)-carbonyl]-3,4-tetrazolium]-bis(4-methoxy-6-nitro)benzene-sulfonic acid hydrate (XTT) (Thermo Fisher Scientific, Waltham, MA, USA) or (3-[4,5-dimethylthiazol-2-yl]-2,5 diphenyl tetrazolium bromide (MTT) (Merck, Kenilworth, NJ, USA) and phenazine methosulfate (PMS) at a final concentration of 25 µM. Absorbance at 450 nm and a reference wavelength of 650 nm was then measured using a microplate spectrophotometer (Multiskan FC Microplate Photometer, Thermo Scientific, Waltham, MA, USA). The cell growth inhibition rate was calculated utilizing the following formula: inhibition rate (%) = […], where Control OD is absorbance of negative control and Sample OD is absorbance of the test sample. The IC50 values were determined with GraphPad Prism 5 through constructed dose-response curves.
(§2) In vitro cultures of colon cancer cells often present mutations either in the APC gene or in the β-catenin gene. […] Two of these cell lines, colon cancer SW480 and SW620 cells, were used in dose-response experiments. […] We thus tested their growth inhibitory activity on the colon cancer cell line HCT116. In terms of APC and β-catenin, these represent the wt counterparts of SW480 and […]. HCT116 cells express wt APC and are heterozygous for β-catenin, harboring one wild type and one mutant (Ser45del) allele. WNT pathway activity and the survival of HCT116 cells thus depend on DVL and can be affected by FZD and DVL inhibitors. […]

HCT116 cells [1] = test: Cell growth inhibition, MTT assay, HCT116; type: cell-based; settings: Homo sapiens, HCT-116; incubation time 48 h; cells express wild-type APC
Procedure: as §1, §2

NHERF1 PDZ1 domain = biological target: T2, NHERF1 PDZ1 domain (Homo sapiens, UniProt O14745); test: Inhibition of the NHERF1 PDZ1 domain; type: binding; settings: data not shown
T2 sequence (O14745 14-94 limits assumed): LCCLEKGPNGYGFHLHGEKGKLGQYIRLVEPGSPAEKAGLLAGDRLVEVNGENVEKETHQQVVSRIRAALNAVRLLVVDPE

SW620 cells = test: Cell growth inhibition, XTT assay, SW620; type: cell-based; settings: Homo sapiens, SW-620; incubation time 72 h
Procedure: as §1, §2

HCT116 cells [2] = test: ROS quantification with DCFDA probe in HCT116 cells; type: cell-based, human; settings: 48 h treatment, increasing concentrations; % of DMSO control
Procedure: HCT116 cells were grown in RPMI-1640 medium (Corning) containing 2 mM L-glutamine and supplemented with 100 IU/mL penicillin/streptomycin and 10% fetal bovine serum (FBS; Sigma-Aldrich, St Louis, MO, USA). HCT116 cells were treated in 96-well-black plates for 48 h with increased concentrations of […]. Quantification of ROS production was measured using 20 μM of the fluorescent probe 2′,7′-dichlorodihydrofluorescein diacetate DCFDA (Sigma Aldrich). The relative fluorescence emission was followed at 520 nm using VICTOR plate reader (VICTOR™ Multilabel Counter, Perkin Elmer) and was normalized to total protein content using BCA test. Total ROS production was presented as percentage with respect to the control (DMSO treated cells) that was set as 100%. Statistical analysis was performed using one-way ANOVA followed by the Bonferroni post hoc comparison test. p < 0.05 was considered significant. Data are representative of three independent experiments with similar results.
Reactive oxygen species (ROS) play important roles in cell growth and differentiation, metabolism and apoptosis. […] We measured the ability of compounds (S)-1 and (R)-1 to generate ROS in HCT116 cells using the fluorescent probe 2′,7′-dichlorodihydrofluorescein diacetate DCFDA. The ROS production (%) upon 48 h treatment was determined with increasing concentrations of (S)-1 or (R)-1. […]

Row | EC50 (WNT/β-catenin pathway) [µM] | Effect on binding between DVL1 PDZ and TMEM88 peptide (DVL1 PDZ domain) | EC50 (SW480 cells) [µM] | EC50 (HCT116 cells [1]) [µM] | EC50 (SW620 cells) [µM] | Compound | Inhibition of NHERF1 PDZ1 domain (NHERF1 PDZ1 domain) | ROS production (HCT116 cells [2])
1 | 19.49 ± 0.06 | abolished the binding | 59.5 ± 2.1 | 28.3 ± 1.2 | 54.8 ± 1.9 | Cc1cc(C)cc(S(=O)(=O)c2c(C(=O)N[C@H](C)C(=O)NCc3ccncc3)[nH]c3ccc(Cl)cc23)c1 [(R)-1] | did not show inhibitory activity; also recorded: did not bind | 
2 |  | abolished the binding | 55 ± 2.2 | 7.1 ± 0.6 | 45.9 ± 2 | Cc1cc(C)cc(S(=O)(=O)c2c(C(=O)N[C@@H](C)C(=O)NCc3ccncc3)[nH]c3ccc(Cl)cc23)c1 [(S)-1, (S)-5-Chloro-3-((3,5-dimethylphenyl)sulfonyl)-N-(1-oxo-1-((pyridin-4-ylmethyl)amino)propan-2-yl)-1H-indole-2-carboxamide] | did not show inhibitory activity; also recorded: did not bind | high level of ROS production; also recorded: superior to (R)-1 at any tested compound concentration; also recorded: higher level of ROS production
3 | 3.46 ± 0.07 |  | 39.2 ± 1.58 | 15.2 ± 1.1 | 38.5 ± 1.6 | Cc1cc(C)cc(S(=O)(=O)c2c(C(=O)NC(C)C(=O)NCc3ccncc3)[nH]c3ccc(Cl)cc23)c1 (stereo not shown) [Compound 1] |  | 
